Data as given in US10124004B2, “Pyrido[3,4-d]pyrimidine derivative and pharmaceutically acceptable salt thereof” (Teijin Pharma Limited, priority 2015, dated 2018).
Read-outs that look alike come from different tables or passages of the source.

Target: T1, CDK4/cyclin D3 (Homo sapiens, UniProt P11802)
T1 construct: purchased Carna Biosciences, Inc. QS S Assist CDK4/Cyclin D3_FP Kit
Test: Human CDK4/cyclin D3 inhibitory activity (QS S Assist CDK4/Cyclin D3_FP Kit, IMAP fluorescence polarization)
Assay type: biochemical
Procedure: Human CDK4/Cyclin D3 Inhibitory Activity
Each compound was analyzed for CDK4/cyclin D3 inhibitory activity with an assay kit (QS S Assist CDK4/Cyclin D3_FP Kit, available from Carna Biosciences, Inc.). This assay kit determines kinase activity on the basis of the IMAP technology by Molecular Devices. Specifically, the kinase activity is determined through quantification of a variation in fluorescent polarization caused by binding of a kinase-phosphorylated fluorescent substance to an IMAP-binding reagent.
Each solution was prepared with the 10× assay buffer attached to the kit or a separately prepared assay buffer having the same composition as the assay buffer attached to the kit. An assay buffer was prepared by 10-fold dilution of the 10× assay buffer with distilled water. The assay buffer contains 20 mM HEPES (pH 7.4), 0.01% Tween20, and 2 mM dithiothreitol. A test compound solution was prepared by dilution of the test compound with dimethyl sulfoxide (DMSO) to a concentration 100 times higher than the final concentration and then 25-fold dilution with the assay buffer to a concentration four times higher than the final concentration. An ATP/substrate/Metal solution was prepared by five-fold dilution of the 5×ATP/substrate/Metal solution attached to the kit with the assay buffer. An enzyme solution was prepared by dilution of the CDK4/cyclin D3 attached to the kit with the assay buffer to a concentration twice higher than the final concentration (final concentration of CDK4/cyclin D3:12.5 to 25 ng/well). A detection reagent was prepared by five-fold dilution of each of 5× IMAP-binding buffer A and 5×IMAP-binding buffer B with distilled water, mixing of IMAP-binding buffer A with IMAP-binding buffer B at a ratio of 85:15, and 400-fold dilution of the IMAP-binding reagent with the mixed buffer.
The test compound solution (5 μL/well) and the ATP/substrate/Metal solution (5 μL/well) were added to a 384-well plate, and the enzyme solution or the assay buffer (10 μL/well) was added to the plate (total amount of the reaction mixture: 20 μL/well) for initiation of enzymatic reaction. […] The reaction was performed at room temperature for 45 minutes, and the detection reagent (60 μL/well) was then added to the plate, followed by further reaction for 30 minutes at room temperature under light shielding conditions. Subsequently, fluorescent polarization was determined with a microplate reader at an excitation wavelength of 485 nm and an emission wavelength of 535 nm.
The percent inhibition of enzyme activity was calculated for each test compound (note: enzyme activity=100% in the case of addition of the enzyme solution and addition of DMSO instead of the test compound solution, whereas enzyme activity=0% in the case of addition of the assay buffer instead of the enzyme solution, and addition of DMSO instead of the test compound solution). The percent inhibition of enzyme activity was fitted to a dose-response curve, to determine a 50% inhibitory concentration against CDK4/cyclin D3.
In each table, “+++” corresponds to IC50<10 nM, “++” 10 nM≤IC50<100 nM, and “+” 100 nM≤IC50.

[1] = Human CDK4/cyclin D3 inhibitory activity, read-out: CDK4 Activity symbol
[2] = 50% inhibitory concentration against CDK4/cyclin D3, given as class symbol

T1 sequence (P11802 whole entry): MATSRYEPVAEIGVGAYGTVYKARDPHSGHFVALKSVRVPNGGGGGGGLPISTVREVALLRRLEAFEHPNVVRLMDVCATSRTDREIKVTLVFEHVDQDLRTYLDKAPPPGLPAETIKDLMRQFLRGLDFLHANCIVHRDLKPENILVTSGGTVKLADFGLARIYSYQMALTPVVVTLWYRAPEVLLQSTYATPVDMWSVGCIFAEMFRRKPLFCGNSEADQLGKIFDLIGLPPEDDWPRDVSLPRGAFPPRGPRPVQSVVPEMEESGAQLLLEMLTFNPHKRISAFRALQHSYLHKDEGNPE
T1 sequence (P30281 whole entry partner): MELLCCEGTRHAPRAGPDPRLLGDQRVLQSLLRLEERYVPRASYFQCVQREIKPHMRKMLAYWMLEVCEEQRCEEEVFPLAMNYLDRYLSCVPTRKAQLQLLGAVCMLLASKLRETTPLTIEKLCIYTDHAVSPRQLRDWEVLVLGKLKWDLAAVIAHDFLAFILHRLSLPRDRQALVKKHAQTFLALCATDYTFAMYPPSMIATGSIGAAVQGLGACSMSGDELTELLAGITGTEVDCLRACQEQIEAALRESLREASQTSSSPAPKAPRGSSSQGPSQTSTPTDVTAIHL

SMILES | IC50 [1] [nM] | IC50 [2] [nM]
CC(O)c1cc2cnc(Nc3ccc(OCCN(C)C)cn3)nc2c(NC2CCC(C)(C)OC2)n1 (single isomer, unassigned) [Compound 689] |  | < 10
CC(O)c1cc2cnc(Nc3ccc(OCCN(C)C)cn3)nc2c(NC2CCC(C)(C)OC2)n1 (single isomer, unassigned) [Compound 690] |  | < 10
CC(C)Nc1nc(C(C)O)cc2cnc(Nc3ccc(N4CCC(O)C(C)C4)nn3)nc12 (single isomer, unassigned) [Compound 704] |  | < 10
CC(C)Nc1nc(C(C)O)cc2cnc(Nc3ccc(N4CCC(O)C(C)C4)nn3)nc12 (single isomer, unassigned) [Compound 705] |  | < 10
CO[C@H](C)c1cc2cnc(Nc3ccc(N4CCNCC4=O)nn3)nc2c(NC(C)C)n1 [Compound 356] | 10 to 100 | 
CO[C@H](C)c1cc2cnc(Nc3ccc(N4CCNCC4)nn3)nc2c(NC2CCS(=O)(=O)CC2)n1 [Compound 359] | 10 to 100 | 
CO[C@H](C)c1cc2cnc(Nc3ccc(N4CCNC(=O)C4)nn3)nc2c(NC(C)C)n1 [Compound 362] | 10 to 100 | 
CO[C@H](C)c1cc2cnc(Nc3ncc(N4CCNCC4)cn3)nc2c(NC(C)C)n1 [Compound 374] | 10 to 100 | 
COCC(C)(C)Nc1nc([C@@H](C)O)cc2cnc(Nc3ncc(N4CCNCC4)cn3)nc12 [Compound 375] | ≥ 100 | 
CO[C@H](C)c1cc2cnc(Nc3ccc(N(C)C(=O)C4CCNCC4)cn3)nc2c(NC(C)C)n1 [Compound 377] | 10 to 100 | 
COC(C)c1cc2cnc(Nc3ccc(CN4CCNCC4)cn3)nc2c(N(C)C(C)C)n1 (centres unmarked) [Compound 391] | 10 to 100 | 
COC(C)c1cc2cnc(Nc3ccc(CN4CCNCC4)cn3)nc2c(NCCN2CCNC2=O)n1 (centres unmarked) [Compound 393] | 10 to 100 | 
COC(C)c1cc2cnc(Nc3ccc(CN4CCNCC4)cn3)nc2c(NCC(C)(C)OC)n1 (centres unmarked) [Compound 394] | 10 to 100 | 
COC(C)c1cc2cnc(Nc3ccc(CN4CCNCC4)cn3)nc2c(NCC2COC2)n1 (centres unmarked) [Compound 396] | ≥ 100 | 
COC(C)c1cc2cnc(Nc3ccc(CN4CCNCC4)cn3)nc2c(NC2CCNCC2)n1 (centres unmarked) [Compound 399] | 10 to 100 | 
COC(C)c1cc2cnc(Nc3ccc(CN4CCNCC4)cn3)nc2c(Nc2ccc(C#N)cc2)n1 (centres unmarked) [Compound 401] | 10 to 100 | 
COC(C)c1cc2cnc(Nc3ccc(CN4CCNCC4)cn3)nc2c(NCC2CCC(=O)N2)n1 (centres unmarked) [Compound 403] | 10 to 100 | 

SMILES | IC50 [1] [nM] | IC50 [2] [nM]
COC(C)c1cc2cnc(Nc3ccc(CN4CCNCC4)cn3)nc2c(NC2CCCN(C(C)=O)C2)n1 (centres unmarked) [Compound 405] | 10 to 100 | 
COC(C)c1cc2cnc(Nc3ccc(CN4CCNCC4)cn3)nc2c(NCC2CNC(=O)C2)n1 (centres unmarked) [Compound 406] | 10 to 100 | 
COC(C)c1cc2cnc(Nc3ccc(CN4CCNCC4)cn3)nc2c(NC2CCCN(C)C2)n1 (centres unmarked) [Compound 407] | 10 to 100 | 
COC(C)c1cc2cnc(Nc3ccc(CN4CCNCC4)cn3)nc2c(NC[C@@H]2CCCO2)n1 (some centres unmarked) [Compound 408] | 10 to 100 | 
COC(C)c1cc2cnc(Nc3ccc(CN4CCNCC4)cn3)nc2c(NCCN2CCCC2=O)n1 (centres unmarked) [Compound 414] | 10 to 100 | 
COC(C)c1cc2cnc(Nc3ccc(CN4CCNCC4)cn3)nc2c(NCc2ccc(=O)[nH]c2)n1 (centres unmarked) [Compound 416] | 10 to 100 | 
COC(C)c1cc2cnc(Nc3ccc(CN4CCNCC4)cn3)nc2c(NC2CNC(=O)C2)n1 (centres unmarked) [Compound 419] | 10 to 100 | 
COC(C)c1cc2cnc(Nc3ccc(CN4CCNCC4)cn3)nc2c(NC2CCC(=O)NC2)n1 (centres unmarked) [Compound 421] | 10 to 100 | 
COC(C)c1cc2cnc(Nc3ccc(CN4CCNCC4)cn3)nc2c(NC2CCNC(=O)C2)n1 (centres unmarked) [Compound 422] | 10 to 100 | 
COC(C)c1cc2cnc(Nc3ccc(CN4CCNCC4)cn3)nc2c(NC2CCC(O)C2)n1 (centres unmarked) [Compound 427] | < 10 | 
COC(C)c1cc2cnc(Nc3ccc(CN4CCNCC4)cn3)nc2c(NCCC2CCOCC2)n1 (centres unmarked) [Compound 428] | < 10 | 
COC(C)c1cc2cnc(Nc3ccc(CN4CCNCC4)cn3)nc2c(NCCC2CCCO2)n1 (centres unmarked) [Compound 429] | < 10 | 
COC(C)c1cc2cnc(Nc3ccc(CN4CCNCC4)cn3)nc2c(NCCC2CCCCO2)n1 (centres unmarked) [Compound 430] | < 10 | 
COC(C)c1cc2cnc(Nc3ccc(CN4CCNCC4)cn3)nc2c(NCCC2CCCOC2)n1 (centres unmarked) [Compound 431] | < 10 | 
COC(C)c1cc2cnc(Nc3ccc(CN4CCNCC4)cn3)nc2c(NC2(CO)CCOCC2)n1 (centres unmarked) [Compound 433] | 10 to 100 | 
COC(C)c1cc2cnc(Nc3ccc(CN4CCNCC4)cn3)nc2c(NC2(CO)CCCCC2)n1 (centres unmarked) [Compound 434] | < 10 | 
COC(C)c1cc2cnc(Nc3ccc(CN4CCNCC4)cn3)nc2c(NC[C@H]2CC[C@H](C(=O)O)CC2)n1 (some centres unmarked) [Compound 435] | 10 to 100 | 

Now from value to molecule:

IC50 [1] [nM] | IC50 [2] [nM] | SMILES
< 10 |  | COC(C)c1cc2cnc(Nc3ccc(O[C@@H]4CCNC[C@H]4F)cn3)nc2c(NC(C)C)n1 (relative stereo) [Compound 459]
< 10 |  | COC(C)c1cc2cnc(Nc3ccc(O[C@H]4CCNC[C@H]4F)cn3)nc2c(NC(C)C)n1 (relative stereo) [Compound 460]
< 10 |  | CC(C)Nc1nc(C(C)O)cc2cnc(Nc3ccc(N4CCCC(O)C4)nn3)nc12 (single isomer, unassigned) [Compound 582]
< 10 |  | CC(C)Nc1nc(C(F)F)cc2cnc(Nc3ccc(C4CCOCC4)cn3)nc12 [Compound 160]
< 10 |  | CO[C@H](C)c1cc2cnc(Nc3ccc(NC4CCNC4)nn3)nc2c(NC(C)C)n1 (some centres unmarked) [Compound 357]
< 10 |  | CO[C@H](C)c1cc2cnc(Nc3ccc(CN4CCNCC4)cn3)nc2c(NC2CCS(=O)(=O)CC2)n1 [Compound 361]
< 10 |  | COC(=O)[C@H]1CC[C@H](CNc2nc(C(C)OC)cc3cnc(Nc4ccc(CN5CCNCC5)cn4)nc23)CC1 (some centres unmarked) [Compound 390]
< 10 |  | COC(C)c1cc2cnc(Nc3ccc(CN4CCNCC4)cn3)nc2c(NCC(C)C)n1 (centres unmarked) [Compound 392]
< 10 |  | COC(C)c1cc2cnc(Nc3ccc(CN4CCNCC4)cn3)nc2c(NC2CCCC(O)C2)n1 (centres unmarked) [Compound 397]
< 10 |  | COC(C)c1cc2cnc(Nc3ccc(CN4CCNCC4)cn3)nc2c(NCC2CCCCO2)n1 (centres unmarked) [Compound 398]
< 10 |  | COC(C)c1cc2cnc(Nc3ccc(CN4CCNCC4)cn3)nc2c(NCC2CCCC(O)C2)n1 (centres unmarked) [Compound 402]
< 10 |  | COC(C)c1cc2cnc(Nc3ccc(CN4CCNCC4)cn3)nc2c(NC(C)C2CCOC2)n1 (centres unmarked) [Compound 404]
< 10 |  | COC(C)c1cc2cnc(Nc3ccc(CN4CCNCC4)cn3)nc2c(NC(C)C2CCCO2)n1 (centres unmarked) [Compound 409]
< 10 |  | COC(C)c1cc2cnc(Nc3ccc(CN4CCNCC4)cn3)nc2c(NC2CCOC(C)(C)C2)n1 (centres unmarked) [Compound 410]
< 10 |  | COC(C)c1cc2cnc(Nc3ccc(CN4CCNCC4)cn3)nc2c(NC[C@H]2CCCO2)n1 (some centres unmarked) [Compound 411]
< 10 |  | COC(C)c1cc2cnc(Nc3ccc(CN4CCNCC4)cn3)nc2c(Nc2cccc(C#N)c2)n1 (centres unmarked) [Compound 412]
< 10 |  | COC(C)c1cc2cnc(Nc3ccc(CN4CCNCC4)cn3)nc2c(NC2(CO)CCCC2)n1 (centres unmarked) [Compound 413]
< 10 |  | COC(C)c1cc2cnc(Nc3ccc(CN4CCNCC4)cn3)nc2c(NC2CN3CCC2CCOC3=O)n1 (centres unmarked) [Compound 415]
< 10 |  | COC(C)c1cc2cnc(Nc3ccc(CN4CCNCC4)cn3)nc2c(NC2CCCC2)n1 (centres unmarked) [Compound 417]
< 10 |  | COC(C)c1cc2cnc(Nc3ccc(CN4CCNCC4)cn3)nc2c(NCC(C)(C)C)n1 (centres unmarked) [Compound 418]
< 10 |  | COC(C)c1cc2cnc(Nc3ccc(CN4CCNCC4)cn3)nc2c(NC2(C)CCOCC2)n1 (centres unmarked) [Compound 420]
< 10 |  | CCC(C)Nc1nc(C(C)OC)cc2cnc(Nc3ccc(CN4CCNCC4)cn3)nc12 (centres unmarked) [Compound 423]
< 10 |  | O[C@H]1CC[C@@H](Nc2nc(C(F)F)cc3cnc(Nc4ccc(CN5CCNCC5)cn4)nc23)CC1 [Compound 424]
< 10 |  | O[C@H]1CC[C@@H](Nc2nc(C(F)F)cc3cnc(Nc4ccc(N5CCNCC5)nn4)nc23)CC1 [Compound 425]
< 10 |  | CN(C)CCOc1ccc(Nc2ncc3cc(C(F)F)nc(N[C@H]4CC[C@@H](O)CC4)c3n2)nc1 [Compound 426]
